Measurements published in PubChem BioAssay (NCI).
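These data come from cells grown in 96-well plates and exposed to compound for 48 hours at five concentrations. TGI: total growth inhibition.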

Key:
Assay in all cases: inhibition of tumour cell growth, NCI panel, 48 h
[1] = system: SNB-75 CNS
[2] = system: RXF-631 renal
[3] = system: MALME-3M melanoma
[4] = system: LXFL 529 NSCLC
[5] = system: A549 NSCLC
[6] = system: HCC-2998 colon
[7] = system: OVCAR-3 ovarian
[8] = system: SR leukemia
[9] = system: SF-268 CNS
[10] = system: KM20L2 colon
[11] = system: UO-31 renal
[12] = system: RXF 393 renal
[13] = system: HOP-92 NSCLC
[14] = system: OVCAR-5 ovarian
[15] = system: CAKI-1 renal
[16] = system: SK-OV-3 ovarian
[17] = system: HCT-15 colon
[18] = system: M14 melanoma
[19] = system: SK-MEL-5 melanoma
[20] = system: SNB-19 CNS
[21] = system: EKVX NSCLC
[22] = system: DMS 114 small cell lung
[23] = system: 786-0 renal
[24] = system: RPMI-8226 leukemia
[25] = system: NCI-H522 lung
[26] = system: XF 498 CNS
[27] = system: HOP-18 NSCLC
[28] = system: LOX IMVI melanoma
[29] = system: K-562 leukemia
[30] = system: CCRF-CEM leukemia
[31] = system: SNB-78 CNS
[32] = system: HOP-62 NSCLC
[33] = system: IGROV1 ovarian
[34] = system: COLO 205 colon
[35] = system: DLD-1 colon
[36] = system: SK-MEL-28 melanoma
[37] = system: OVCAR-8 ovarian
[38] = system: A498 renal
[39] = system: NCI-H226 lung
[40] = system: SF-295 CNS
[41] = system: M19-MEL melanoma
[42] = system: KM12 colon
[43] = system: UACC-257 melanoma
[44] = system: OVCAR-4 ovarian
[45] = system: HL-60(TB) leukemia
[46] = system: U251 CNS
[47] = system: UACC-62 melanoma
[48] = system: SF-539 CNS
[49] = system: ACHN renal
[50] = system: HCT-116 colon
[51] = system: MOLT-4 leukemia
[52] = system: NCI-H460 lung
[53] = system: TK-10 renal
[54] = system: SN12C renal
[55] = system: HT29 colon
[56] = system: NCI-H23 lung
[57] = system: SK-MEL-2 melanoma
[58] = system: MDA-MB-231 breast
[59] = system: MCF7 breast
[60] = system: DU-145 prostate
[61] = system: MDA-MB-435
[62] = system: NCI/ADR-RES ovarian
[63] = system: PC-3 prostate
[64] = system: SW-620 colon
[65] = system: BT-549 breast
[66] = system: HS 578T breast
[67] = system: MDA-N
[68] = system: DMS 273 small cell lung

Compound: CC(C)=CC1CC(=O)C1(C)Sc1ccccc1 (stereo unspecified)
- TGI [1]: > 100 µM
- TGI [2]: > 100 µM
- TGI [3]: > 100 µM
- TGI [4]: > 100 µM
- TGI [5]: > 100 µM
- TGI [6]: > 100 µM
- TGI [7]: > 100 µM
- TGI [8]: 41.4 µM
- TGI [9]: > 100 µM
- TGI [10]: > 100 µM
- TGI [11]: > 100 µM
- TGI [12]: 72 µM
- TGI [13]: 87 µM
- TGI [14]: > 100 µM
- TGI [15]: > 100 µM
- TGI [16]: > 100 µM
- TGI [17]: 34.8 µM
- TGI [18]: > 100 µM
- TGI [19]: > 100 µM
- TGI [20]: > 100 µM
- TGI [21]: > 100 µM
- TGI [22]: 32.6 µM
- TGI [23]: > 100 µM
- TGI [24]: 45.9 µM
- TGI [25]: 69.1 µM
- TGI [26]: 95.7 µM
- TGI [27]: > 100 µM
- TGI [28]: 36.1 µM
- TGI [29]: 59.4 µM
- TGI [30]: 45 µM
- TGI [31]: > 100 µM
- TGI [32]: > 100 µM
- TGI [33]: > 100 µM
- TGI [34]: 65.1 µM
- TGI [35]: > 100 µM
- TGI [36]: > 100 µM
- TGI [37]: > 100 µM
- TGI [38]: > 100 µM
- TGI [39]: > 100 µM
- TGI [40]: > 100 µM
- TGI [41]: 72.1 µM
- TGI [42]: > 100 µM
- TGI [43]: > 100 µM
- TGI [44]: > 100 µM
- TGI [45]: 46.7 µM
- TGI [46]: > 100 µM
- TGI [47]: > 100 µM
- TGI [48]: > 100 µM
- TGI [49]: > 100 µM
- TGI [50]: > 100 µM
- TGI [51]: 92.1 µM
- TGI [52]: 54.4 µM
- TGI [53]: > 100 µM
- TGI [54]: > 100 µM
- TGI [55]: 66.6 µM
- TGI [56]: > 100 µM
- TGI [57]: > 100 µM

Compound: N#CCC(=O)N/N=C(\CCN1CCCC1)CC(c1ccccc1)c1c(O)c2ccccc2oc1=O (stereo unspecified)
- TGI [1]: > 100 µM
- TGI [2]: > 100 µM
- TGI [58]: > 100 µM
- TGI [3]: > 100 µM
- TGI [4]: > 100 µM
- TGI [5]: > 100 µM
- TGI [6]: > 100 µM
- TGI [7]: > 100 µM
- TGI [8]: 69.8 µM
- TGI [9]: > 100 µM
- TGI [10]: > 100 µM
- TGI [11]: > 100 µM
- TGI [59]: 45.9 µM
- TGI [60]: > 100 µM
- TGI [61]: > 100 µM
- TGI [12]: > 100 µM
- TGI [13]: > 100 µM
- TGI [14]: > 100 µM
- TGI [15]: > 100 µM
- TGI [16]: > 100 µM
- TGI [17]: > 100 µM
- TGI [62]: > 100 µM
- TGI [18]: > 100 µM
- TGI [63]: > 100 µM
- TGI [19]: > 100 µM
- TGI [20]: > 100 µM
- TGI [21]: > 100 µM
- TGI [23]: > 100 µM
- TGI [24]: > 92.8 µM
- TGI [25]: > 100 µM
- TGI [26]: > 100 µM
- TGI [27]: > 100 µM
- TGI [28]: > 64.7 µM
- TGI [29]: > 100 µM
- TGI [30]: > 94.8 µM
- TGI [32]: > 100 µM
- TGI [33]: > 100 µM
- TGI [34]: > 56.8 µM
- TGI [35]: > 100 µM
- TGI [36]: > 100 µM
- TGI [64]: > 100 µM
- TGI [37]: > 100 µM
- TGI [65]: > 100 µM
- TGI [38]: > 85.5 µM
- TGI [39]: > 100 µM
- TGI [40]: > 100 µM
- TGI [41]: > 100 µM
- TGI [42]: > 100 µM
- TGI [43]: > 100 µM
- TGI [44]: > 100 µM
- TGI [45]: 59.6 µM
- TGI [46]: > 100 µM
- TGI [47]: > 100 µM
- TGI [48]: > 100 µM
- TGI [49]: > 100 µM
- TGI [66]: > 100 µM
- TGI [50]: > 100 µM
- TGI [51]: 61.5 µM
- TGI [67]: > 100 µM
- TGI [52]: > 100 µM
- TGI [53]: > 100 µM
- TGI [54]: > 100 µM
- TGI [55]: > 100 µM
- TGI [56]: > 100 µM
- TGI [57]: > 100 µM

Compound: CN1CCC(SC2Cc3cc(Cl)ccc3Sc3ccccc32)CC1 (stereo unspecified)
- TGI [1]: 22.2 µM
- TGI [2]: 27.9 µM
- TGI [3]: 28.8 µM
- TGI [4]: 26.3 µM
- TGI [5]: 29.7 µM
- TGI [6]: 21.3 µM
- TGI [7]: 28.2 µM
- TGI [8]: 23.1 µM
- TGI [9]: 25.5 µM
- TGI [10]: 17.8 µM
- TGI [11]: 16.7 µM
- TGI [68]: 26.2 µM
- TGI [12]: 17.1 µM
- TGI [13]: 26.9 µM
- TGI [14]: 30.3 µM
- TGI [15]: 23.7 µM
- TGI [16]: 30.4 µM
- TGI [17]: 31.1 µM
- TGI [18]: 15.7 µM
- TGI [19]: 26.8 µM
- TGI [20]: 29 µM
- TGI [21]: 34 µM
- TGI [23]: 27.7 µM
- TGI [24]: 23.3 µM
- TGI [25]: 28.4 µM
- TGI [26]: 30 µM
- TGI [27]: 26.7 µM
- TGI [28]: 25.7 µM
- TGI [29]: 21.9 µM
- TGI [33]: 29.6 µM
- TGI [34]: 27.2 µM
- TGI [35]: 28.2 µM
- TGI [36]: 4.78 µM
- TGI [64]: 30.9 µM
- TGI [37]: 31.5 µM
- TGI [38]: 31.6 µM
- TGI [39]: 30 µM
- TGI [40]: 30.7 µM
- TGI [41]: 25.3 µM
- TGI [42]: 23.2 µM
- TGI [43]: 21.3 µM
- TGI [44]: 29 µM
- TGI [45]: 19.5 µM
- TGI [46]: 27.9 µM
- TGI [47]: 11.4 µM
- TGI [48]: 33.8 µM
- TGI [49]: 28.6 µM
- TGI [50]: 22.5 µM
- TGI [51]: 20.3 µM
- TGI [52]: 31.4 µM
- TGI [53]: 26.5 µM
- TGI [54]: 28.5 µM
- TGI [55]: 15.3 µM
- TGI [56]: 27.9 µM

Compound: O=C(Nc1ccccc1)C(=O)C(C(=O)c1ccccc1F)C1OC(=O)c2ccccc21 (stereo unspecified)
- TGI [1]: 72.2 µM
- TGI [2]: > 100 µM
- TGI [4]: > 100 µM
- TGI [5]: > 100 µM
- TGI [6]: 57.4 µM
- TGI [8]: 77.9 µM
- TGI [9]: 81 µM
- TGI [10]: > 100 µM
- TGI [11]: > 100 µM
- TGI [68]: > 100 µM
- TGI [12]: 63.2 µM
- TGI [13]: > 100 µM
- TGI [14]: > 100 µM
- TGI [15]: > 100 µM
- TGI [16]: > 100 µM
- TGI [17]: 67.3 µM
- TGI [18]: > 100 µM
- TGI [19]: > 100 µM
- TGI [20]: > 100 µM
- TGI [21]: > 100 µM
- TGI [22]: 61.7 µM
- TGI [24]: > 100 µM
- TGI [25]: 61.8 µM
- TGI [26]: > 100 µM
- TGI [28]: 63.2 µM
- TGI [29]: > 100 µM
- TGI [30]: > 100 µM
- TGI [31]: > 100 µM
- TGI [32]: > 100 µM
- TGI [33]: > 100 µM
- TGI [34]: 43.2 µM
- TGI [35]: > 100 µM
- TGI [36]: > 100 µM
- TGI [64]: > 100 µM
- TGI [37]: 55 µM
- TGI [38]: > 100 µM
- TGI [39]: 62.6 µM
- TGI [40]: > 100 µM
- TGI [41]: > 100 µM
- TGI [42]: > 100 µM
- TGI [43]: > 100 µM
- TGI [44]: > 100 µM
- TGI [45]: 75.6 µM
- TGI [46]: 46.9 µM
- TGI [47]: > 100 µM
- TGI [48]: 43.2 µM
- TGI [49]: > 100 µM
- TGI [50]: 49.9 µM
- TGI [51]: > 100 µM
- TGI [52]: > 100 µM
- TGI [53]: > 100 µM
- TGI [54]: > 100 µM
- TGI [55]: > 100 µM
- TGI [56]: > 100 µM
- TGI [57]: 93.8 µM
